Laboratory results published in patent US5750562A (priority 1995, dated 1998).

What was measured:
L1210 (murine leukemia) = experiment: Cytotoxicity, L1210 (murine leukemia); assay type: cell-based; settings: Mus musculus, exposition time 48 h, RPMI 1640 + 20 mM HEPES + 2 mM L-glutamine
A121 (human ovarian) = experiment: Cytotoxicity, A121 (human ovarian); assay type: cell-based; settings: exposition time 72 h, RPMI 1640 + 20 mM HEPES + 2 mM L-glutamine
Description: (§1) IC50 s of compounds 10, 11and paclitaxel on 6 human
(§2) Standard conditions: basal medium RPMI 1640 + 20 mM HEPES + 2 mM

A549 (human NSCLC) = experiment: Cytotoxicity, A549 (human NSCLC); assay type: cell-based; settings: exposition time 72 h, RPMI 1640 + 20 mM HEPES + 2 mM L-glutamine
Description: as §1, §2

HT-29 (human colon) = experiment: Cytotoxicity, HT-29 (human colon); assay type: cell-based; settings: exposition time 72 h, RPMI 1640 + 20 mM HEPES + 2 mM L-glutamine
Description: as §1, §2

MCF7 (human breast) = experiment: Cytotoxicity, MCF7 (human breast); assay type: cell-based; settings: exposition time 72 h, RPMI 1640 + 20 mM HEPES + 2 mM L-glutamine
Description: as §1, §2

tumours = experiment: Anti-tumoral activity (general statement); settings: in words, among the compounds of formula 1
MCF7-ADR (resistant) = experiment: cells; assay type: cell-based; settings: Homo sapiens, NCI/ADR-RES, 72 h
human tumours = settings: background art, cited from earlier work
Cardiotoxic activity = settings: in words, compared with taxol and its known derivatives

SMILES | IC50 (L1210 (murine leukemia)) [nM] | IC50 (A121 (human ovarian)) [nM] | IC50 (A549 (human NSCLC)) [nM] | IC50 (HT-29 (human colon)) [nM] | IC50 (MCF7 (human breast)) [nM] | activity (tumours) | IC50 (MCF7-ADR (resistant)) [nM] | anticancerogenic activity (human tumours; different forms of human tumours) | resistance induction (human tumours) | side-effects in clinical use (human tumours) | cardiotoxic activity (Cardiotoxic activity)
CC(=O)O[C@@]12CO[C@@H]1C[C@H](O)[C@@]1(C)C(=O)C(=O)C3=C(C)[C@@H](OC(=O)[C@H](O)[C@H](CC(C)C)NC(=O)OC(C)(C)C)[C@@H]4OC(=O)O[C@]4([C@@H](OC(=O)c4ccccc4)[C@H]21)C3(C)C [Compound 11, 13=[(2R,3S)-3-ter-butoxycarbonylamino-2-hydroxy-3-isobutyl-propanoyl]-10-dehydro-10-deacetyl-14β-hydroxy-baccatine III 1,14-carbonate] | 2 ± 0.1 | 1.6 ± 0.2 | 2.1 ± 0.3 | 0.6 ± 0.4 | 0.8 ± 0.2 | particularly active | – | – | – | – | –
CC(=O)O[C@H]1C(=O)[C@@]2(C)[C@H]([C@H](OC(=O)c3ccccc3)[C@]3(O)C[C@H](OC(=O)[C@H](O)[C@@H](NC(=O)c4ccccc4)c4ccccc4)C(C)=C1C3(C)C)[C@]1(OC(C)=O)CO[C@@H]1C[C@@H]2O [Paclitaxel, reference compound] | 7 ± 3 | 3.7 ± 0.3 | 5.4 ± 0.5 | 6 ± 0.6 | 4.3 ± 0.1 | – | 395 ± 8.7 | anticancerogenic activity on different forms of human tumours | induces resistance quickly | serious side-effects | contrary to taxol
CCCCCC(=O)N[C@@H](CC(C)C)[C@@H](O)C(=O)O[C@@H]1C(C)=C2C(=O)C(=O)[C@@]3(C)[C@H]([C@H](OC(=O)c4ccccc4)[C@@]4(OC(=O)O[C@@H]14)C2(C)C)[C@]1(OC(C)=O)CO[C@@H]1C[C@@H]3O [Compound 12, 13-[(2R,3S)-3-caproylamino-2-hydroxy-3-isobutyl-propanoyl]-10-dehydro-10-deacetyl 14β-hydroxy-baccatine III 1,14-carbonate] | – | – | – | – | – | particularly active | – | – | – | – | –
CC(=O)O[C@@]12CO[C@@H]1C[C@H](O)[C@@]1(C)C(=O)C(=O)C3=C(C)[C@@H](OC(=O)[C@H](O)[C@H](CC(C)C)NC(=O)OC(C)(C)C)C[C@@](O)([C@@H](OC(=O)c4ccccc4)[C@H]21)C3(C)C [Compound 10, 13-[(2R,3S)-3-ter-butoxycarbonylamino-2-hydroxy3-isobutyl-propanoyl]-10-deacetyl-10-dehydro-baccatine III] | 0.6 ± 0.1 | 0.8 ± 0.3 | 1.9 ± 0.3 | 0.4 ± 0.1 | 1.2 ± 0.2 | particularly active | – | – | – | – | –
